In patent publication US5788969A, “Peptides for inducing cytotoxic T lymphocyte responses hepatitis B virus” (priority 1995, dated 1998):

Columns and labels:
[1] = tested on: allogeneic target cells partially matched at HLA class I; experiment: HLA restriction of peptide specific CTL using allogeneic target cells partially matched at HLA class I; type: cell-based, human; conditions: clone B3 (patient A-1) and polyclonal CTL line (patient A-3)
Protocol: Using patient A-1's HBsAg329-348 specific cell line four clones were derived from cells plated at 1 cell per well (clone B13, B16, B17) or 0.3 cells per well (clone B3). Clone B3 was tested against a panel of allogeneic target cells partially matched with the effectors at the level of HLA class I alleles. […] Since the HLA-A2 subtypes of the patients were not determined, it is not known if the CTL response to the peptides is restricted only by the HLA-A2.1 allele or whether it extends to other HLA-A2 subtypes as well.

[2] = tested on: PBMC from patients and normal donors; conditions: patients A-1 and A-3, after 2-3 weeks of stimulation

Which results are given for ASARFSWLSLLVPFVQWFVG [HBsAg329-348]?
HLA restriction of cytolytic activity of peptide specific CTL [1]: HLA-A2 restricted; cytotoxic response of peptide stimulated PBMC against JY cells prepulsed with the peptide [2]: strong cytotoxic response
